Experimental data from patent US9145411B2, “Substituted amino-pyrimidine derivatives” (Asana Biosciences, LLC, priority 2012, dated 2015).

Key:
[1] = target: T1, PI3Kα (wild-type) (Homo sapiens, UniProt P42336); assay: PI3 Kinase TR-FRET assay, PI3Kα (wild-type); type: biochemical; conditions: wild-type P110/P85α, 10 μM ATP
T1 construct: made in house; host or cells: SF9 insect cells
Outline: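 Sf9-expressed, Ni-purified p110/p85α (5 ng) with PIP2 was preincubated with compound for 60 min at room temperature in buffer with 40 mM MgCl2 and 5 mM DTT. The reaction ran 30 min at room temperature with 10 μM PIP2 and 10 μM ATP. The TR-FRET 665/615 nm ratio was used to derive IC50 from dose-response curves.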

[2] = target: T2, mTOR kinase (Homo sapiens, UniProt P42345); assay: mTOR kinase TR-FRET assay; type: biochemical; conditions: 20 μM ATP
T2 construct: purchased Millipore, USA
Outline: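 Test compounds were pre-incubated 60 min with mTOR (5 ng), then ULight-p70 S6K (Thr389) peptide (50 nM) and ATP (20 μM) were added in HEPES 50 mM pH 7.5, EGTA, MnCl2 3 mM. After 60 min at room temperature, EDTA stop and Eu-anti-phospho antibody TR-FRET (665/615 nm) gave IC50 from sigmoidal variable-slope fits.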

[3] = tested on: pAkt(T308); assay: In-cell Western assay, pAkt(T308), PC3 cells; type: cell-based; conditions: Homo sapiens, PC-3, 2 hours incubation
Outline: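 PC3 cells, 22,000/well in Ham's F12K, exposed to serial compound dilutions for 2 h, then fixed and immunostained for each phospho-epitope. Eu-labelled secondary read by time-resolved fluorescence (ex 340, em 615 nm), corrected by Hoechst 33258 signal (ex 355, em 460 nm). IC50 from sigmoidal dose-response fit.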

[4] = tested on: pAkt(S473); assay: In-cell Western assay, pAkt(S473), PC3 cells; type: cell-based; conditions: Homo sapiens, PC-3, 2 hours incubation
Method: (§1) Cells from human prostate cancer cell line PC3 (American Type Culture Collection (ATCC), Manassas, Va. 20108 USA) were seeded at an optimal density of 22,000 cell/well in 96-well plates containing Ham's F12K medium (90 μL) and incubated overnight. The compound dilutions were carried out in 100% DMSO followed by a dilution in the medium. Test compounds were added in serial dilutions to the wells and incubated for 2 hours. The cells were washed and fixed with 4% paraformaldehyde. After incubation at room temperature for 1 hour in the dark, blocking was done for 2 hours at room temperature. Primary antibodies for pAkt(S473) ([…] phosphorylated at serine 473), pAkt(T308) (Akt phosphorylated at threonine 308) and for pS6RP (S235/236) (phosphorylated at serine 235/236) (commercially available from Cell Signaling Technology®, whose protocol was followed for the in-cell western assay, were diluted to the required concentration and added to the corresponding wells followed by overnight incubation at 4° C. Eu-labeled rabbit (PE) (Perkin-Elmer USA catalog #AD0106) secondary antibody was added and incubated for 2 hours at room temperature. Delfia® enhancement solution (cat #1244-105, Perkin Elmer USA) was subsequently added to the plate before taking the reading at 615 nm with excitation wavelength of 340 nm, after which 0.5 μg/mL of Hoechst® 33258 dye (Catalog #86140-5, Sigma) was added to the plate and fluorescence emission was read at 460 nm with 355 nm excitation, to evaluate the correction factor. IC50 values were calculated using a sigmoidal dose-response curve fit in GraphPad Prism® v5 software.

[5] = tested on: pS6RP (S235/236); assay: In-cell Western assay, pS6RP (S235/236), PC3 cells; type: cell-based; conditions: Homo sapiens, PC-3, 2 hours incubation
Method: as §1

[6] = tested on: PC3 cells; assay: XTT assay for cell viability, PC3 cells; type: cell-based; conditions: Homo sapiens, PC-3; PC3 cell proliferation, 96 hours
Outline: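 Log-phase PC3 cells (1000/well) were seeded for 24 h, then exposed to serially diluted compounds (DMSO dilutions) for 96 h. Viability was measured by XTT dye conversion at 37 °C, with absorbance read at 465 nm. EC50 was obtained from a sigmoidal dose-response fit.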

[7] = tested on: U87MG cells; assay: XTT assay for cell viability, U87MG cells; type: cell-based; conditions: Homo sapiens, U-87 MG, read-out: inhibition of U87MG cell proliferation, IC50
Method: Using a commercial kit from Sigma Aldrich (Catalog #X34251) and following its protocol, PC3 cells in the log phase of growth were employed and seeded at an optimal density of 1000 cell/well on to 96 well plates and incubated for 24 hours followed by the addition of compounds of formula (I) in serial dilutions. Compound dilutions were made in DMSO. The cells were incubated with the compounds of formula (I) for 96 hours and XTT tetrazolium dye (Sigma, USA) was subsequently added and incubated at 37° C. After the color formation, absorbance was measured at 465 nm in a Spectramax® Gemini spectrophotometer. EC50 values were calculated using a sigmoidal dose response curve fit in GraphPad Prism® v5 software. The tested compounds of formula (I) which caused inhibition of PC3 cell proliferation as determined by this assay protocol are shown in Table 2.
XTT assays for cell viability were also determined in U87MG, BT474 cells and T47D cells, in a similar manner to the protocol described above. The compounds cause inhibition of U87MG, BT474 and T47D cell proliferation as determined by these assays. For example, the compounds of Examples 3 and 7 caused inhibition of U87MG, BT474 and T47D cell proliferation with IC50 values<600 nM.

T2 sequence (P42345 1362-2549 limits assumed): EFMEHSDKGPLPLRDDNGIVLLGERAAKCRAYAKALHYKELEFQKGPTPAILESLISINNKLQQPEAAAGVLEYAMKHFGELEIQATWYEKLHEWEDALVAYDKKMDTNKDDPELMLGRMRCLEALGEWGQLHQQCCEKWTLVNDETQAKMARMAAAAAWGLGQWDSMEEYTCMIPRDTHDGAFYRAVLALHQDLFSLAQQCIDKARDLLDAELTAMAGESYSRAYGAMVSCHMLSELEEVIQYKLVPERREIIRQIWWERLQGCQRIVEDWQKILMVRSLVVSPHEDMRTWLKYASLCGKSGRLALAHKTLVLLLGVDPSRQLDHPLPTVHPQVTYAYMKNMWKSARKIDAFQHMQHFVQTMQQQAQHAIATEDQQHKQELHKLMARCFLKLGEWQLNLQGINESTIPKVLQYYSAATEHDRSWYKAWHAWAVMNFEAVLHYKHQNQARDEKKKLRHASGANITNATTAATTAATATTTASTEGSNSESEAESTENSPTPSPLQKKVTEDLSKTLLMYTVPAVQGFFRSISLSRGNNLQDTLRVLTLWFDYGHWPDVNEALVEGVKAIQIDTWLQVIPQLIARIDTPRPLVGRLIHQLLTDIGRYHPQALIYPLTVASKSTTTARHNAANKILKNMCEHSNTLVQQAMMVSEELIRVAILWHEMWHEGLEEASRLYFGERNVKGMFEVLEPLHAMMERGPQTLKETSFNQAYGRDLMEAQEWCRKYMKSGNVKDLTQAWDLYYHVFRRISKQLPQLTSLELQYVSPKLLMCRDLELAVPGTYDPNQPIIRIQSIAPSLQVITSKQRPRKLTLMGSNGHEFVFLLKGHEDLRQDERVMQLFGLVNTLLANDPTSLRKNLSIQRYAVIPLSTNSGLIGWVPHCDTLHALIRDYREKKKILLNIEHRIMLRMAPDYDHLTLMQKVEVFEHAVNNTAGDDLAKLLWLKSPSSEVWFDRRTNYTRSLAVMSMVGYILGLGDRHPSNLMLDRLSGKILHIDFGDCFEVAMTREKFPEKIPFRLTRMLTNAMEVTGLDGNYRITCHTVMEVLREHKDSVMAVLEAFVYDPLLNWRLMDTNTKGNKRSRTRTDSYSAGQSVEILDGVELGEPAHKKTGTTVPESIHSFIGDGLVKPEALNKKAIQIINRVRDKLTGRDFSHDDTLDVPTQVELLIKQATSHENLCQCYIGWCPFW
T1 sequence (P42336 whole entry, species assumed): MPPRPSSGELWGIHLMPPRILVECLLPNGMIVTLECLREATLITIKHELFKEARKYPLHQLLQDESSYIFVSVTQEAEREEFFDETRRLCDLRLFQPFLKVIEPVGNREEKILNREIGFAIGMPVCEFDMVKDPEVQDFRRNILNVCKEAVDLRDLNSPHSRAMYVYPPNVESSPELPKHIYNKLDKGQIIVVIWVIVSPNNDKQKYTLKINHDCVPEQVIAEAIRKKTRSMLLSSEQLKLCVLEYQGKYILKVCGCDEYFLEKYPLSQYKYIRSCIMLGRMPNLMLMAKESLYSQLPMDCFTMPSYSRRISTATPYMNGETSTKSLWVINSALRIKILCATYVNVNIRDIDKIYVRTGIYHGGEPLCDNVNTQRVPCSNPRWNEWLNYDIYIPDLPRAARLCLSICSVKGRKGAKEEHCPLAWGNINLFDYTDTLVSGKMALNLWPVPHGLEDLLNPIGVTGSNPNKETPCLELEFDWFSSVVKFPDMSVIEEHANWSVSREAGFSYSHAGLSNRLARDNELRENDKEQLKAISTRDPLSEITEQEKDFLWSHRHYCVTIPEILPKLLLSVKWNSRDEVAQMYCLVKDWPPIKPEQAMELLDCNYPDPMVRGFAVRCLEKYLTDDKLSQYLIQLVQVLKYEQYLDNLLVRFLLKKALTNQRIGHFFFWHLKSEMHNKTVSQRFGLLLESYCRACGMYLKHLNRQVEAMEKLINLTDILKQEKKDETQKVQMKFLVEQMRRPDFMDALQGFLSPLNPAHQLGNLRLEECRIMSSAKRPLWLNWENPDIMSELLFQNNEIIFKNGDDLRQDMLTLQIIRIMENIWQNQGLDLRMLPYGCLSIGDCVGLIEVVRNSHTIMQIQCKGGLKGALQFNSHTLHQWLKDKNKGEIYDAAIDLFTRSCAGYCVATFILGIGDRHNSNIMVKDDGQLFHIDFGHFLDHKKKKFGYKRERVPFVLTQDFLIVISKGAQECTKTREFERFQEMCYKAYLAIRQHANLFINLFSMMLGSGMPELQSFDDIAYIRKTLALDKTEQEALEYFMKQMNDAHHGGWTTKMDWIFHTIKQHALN
T1 sequence (P27986 whole entry partner, species assumed): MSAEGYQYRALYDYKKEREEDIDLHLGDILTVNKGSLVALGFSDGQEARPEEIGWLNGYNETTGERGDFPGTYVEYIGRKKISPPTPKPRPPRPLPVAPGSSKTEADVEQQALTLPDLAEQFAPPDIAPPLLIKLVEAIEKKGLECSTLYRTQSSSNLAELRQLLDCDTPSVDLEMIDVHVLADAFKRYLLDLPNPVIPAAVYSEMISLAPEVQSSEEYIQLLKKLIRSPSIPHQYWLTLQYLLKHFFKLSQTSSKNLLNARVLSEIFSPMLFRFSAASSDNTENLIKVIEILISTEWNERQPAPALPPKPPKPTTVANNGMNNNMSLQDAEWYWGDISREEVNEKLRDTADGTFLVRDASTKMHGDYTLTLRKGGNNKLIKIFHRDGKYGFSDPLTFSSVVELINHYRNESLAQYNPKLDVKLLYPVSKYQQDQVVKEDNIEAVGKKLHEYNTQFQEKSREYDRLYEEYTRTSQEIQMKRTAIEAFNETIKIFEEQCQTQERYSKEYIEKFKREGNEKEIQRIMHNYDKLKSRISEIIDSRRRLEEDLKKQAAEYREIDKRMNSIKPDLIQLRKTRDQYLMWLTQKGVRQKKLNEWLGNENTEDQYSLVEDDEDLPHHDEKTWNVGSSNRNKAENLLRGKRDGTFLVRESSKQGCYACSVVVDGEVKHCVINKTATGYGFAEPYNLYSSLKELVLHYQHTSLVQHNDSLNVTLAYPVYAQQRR

Row | IC50 [1] | IC50 [2] | IC50 [3] | IC50 [4] | IC50 [5] | IC50 [6] | IC50 [7] | SMILES
1 | < 50 nM | < 50 nM | 100 to 500 nM | 100 to 500 nM | 100 to 500 nM | 100 to 500 nM | < 600 nM | CC(=O)Nc1cccc(-c2cnc3c(N4CCOCC4)nc(-c4cnc(N)nc4)nc3c2)c1 [Example 3, N-(3-(2-(2-Aminopyrimidin-5-yl)-4-morpholinopyrido[3,2-d]pyrimidin-7-yl)-phenyl)acetamide]
2 | < 50 nM | < 50 nM | 100 to 500 nM | < 100 nM | 100 to 500 nM | 100 to 500 nM | < 600 nM | Nc1ncc(-c2nc(N3CCOCC3)c3ncc(-c4cccc(NC(=O)C5CC5)c4)cc3n2)cn1 [Example 7, N-(3-(2-(2-Aminopyrimidin-5-yl)-4-morpholinopyrido[3,2-d]pyrimidin-7-yl)-phenyl)cyclopropanecarboxamide]
3 | < 50 nM | < 50 nM | < 100 nM | 100 to 500 nM | < 100 nM | 100 to 500 nM | – | N#CC1(C(=O)Nc2cccc(-c3cnc4c(N5CCOCC5)nc(-c5cnc(N)nc5)nc4c3)c2)CC1 [Example 61, N-(3-(2-(2-amino-pyrimidin-5-yl)-4-morpholinopyrido[3,2-d]pyrimidin-7-yl)phenyl)-1-cyanocyclopropane-carboxamide]
